Results on five molecules are retold here after US20060198879A1, “Patch material for ionic medicine administration” (Tokuyama Corporation, priority 2003, published 2006).

Data set [1] in a line: Amount of medicine permeated in living body skin system. The settings on record: 10 mmol/l, miniature pig back skin. Type of data set: in vitro ADME, miniature pig (Yucatane Micropig). The method, then:
(§1) An aqueous solution containing 10% by mass of a polyvinyl alcohol (NH-20 produced by The Nippon Synthetic Chemical Industry Co., Ltd.) was coated on a filter paper (a chemical analysis filter paper 5C produced by Advantec). The amount of the solution coated was such that the amount of the polyvinyl alcohol after solvent removal was 2 mg/cm^2. Then, the filter paper was allowed to stand at room temperature for 24 hours or more to vaporize the water, whereby was obtained a virtual skin. […] An aqueous solution containing a given concentration of a medicine was filled in a medicine solution chamber 22; and an aqueous solution containing […] by mass of sodium chloride was filled in a virtual skin chamber 23. Then, a permeation test was conducted at 25° C. for a given period of time with the inside of the medicine solution chamber 22 and the inside of the virtual skin chamber 23 being stirred. Right after the completion of the test, the solution inside the virtual skin chamber 23 was withdrawn and used as a sample for measurement. The amount of medicine in the sample was determined using liquid chromatography.
(5) Amount of Medicine Permeated in Living Body Skin System
The amount of the medicine permeated was measured in the same manner as in the virtual skin system, by replacing the virtual skin (a filter paper coated with a polyvinyl alcohol) with a living body skin, i.e. the back skin of miniature pig (Yucatane Micropig, 5 month-old, female).

The nature of data set [2]: Amount of medicine permeated in virtual skin system. Type of data set: in vitro ADME. The following applies: 10 mmol/l, 25° C., no voltage. How it is done:
(4) Amount of Medicine Permeated in Virtial Skin System
as §1

[3] abbreviates: sodium ascorbate, duration of permeation 3 hr.
The mark [4] stands for this setting: magnesium salt of ascorbic acid-phosphoric acid ester, duration of permeation 1 hr.
[5] abbreviates: magnesium salt of ascorbic acid-phosphoric acid ester, duration of permeation 2 hr.
Where [6] appears, read: magnesium salt of ascorbic acid-phosphoric acid ester, duration of permeation 3 hr.

Regarding `O=C1O[C@H]([C@@H](O)CO)C([O-])=C1O.[Na+]` [compound 8, sodium ascorbate], the Amount of permeation was 0.003 μmol/cm^2 in data set [1] (sodium ascorbate, duration of permeation 1 hr); 0.005 μmol/cm^2 in data set [1] (sodium ascorbate, duration of permeation 2 hr); 0.007 μmol/cm^2 in data set [1] (setting [3]).
Molecule `O=C1O[C@H]([C@@H](O)CO)C([O-])=C1O.[Na+]` [Comparative Example 4, sodium ascorbate] displayed an Amount of permeation in data set [2] (setting [3]) of 5.2 μmol/cm^2.
Take `O=C1O[C@H]([C@@H](O)CO)C([O-])=C1OP(=O)([O-])[O-].O=C1O[C@H]([C@@H](O)CO)C([O-])=C1OP(=O)([O-])[O-].[Mg+2].[Mg+2].[Mg+2]` [Comparative Example 2, magnesium salt of ascorbic acid-phosphoric acid ester]: the values for the Amount of permeation in data set [2] (setting [4]), in data set [2] (setting [5]) and in data set [2] (setting [6]) were 0.6 μmol/cm^2, 1.3 μmol/cm^2 and 2.0 μmol/cm^2, respectively.
Regarding `Cl.Cl.NCCc1c[nH]cn1` [compound 6, histamine dihydrochloride], the Amount of permeation in data set [2] (histamine dihydrochloride, duration of permeation 3 hr) is listed as 2.5 μmol/cm^2.
For the molecule `O=C1O[C@H]([C@@H](O)CO)C([O-])=C1OP(=O)([O-])[O-].O=C1O[C@H]([C@@H](O)CO)C([O-])=C1OP(=O)([O-])[O-].[Mg+2].[Mg+2].[Mg+2]` [Comparative Example 9, magnesium salt of ascorbic acid-phosphoric acid ester], the Amount of permeation was 0.010 μmol/cm^2 in data set [1] (setting [4]), 0.013 μmol/cm^2 in data set [1] (setting [5]) and 0.015 μmol/cm^2 in data set [1] (setting [6]).
